Results taken from patent US20250108064A1, “PHOSPHATE PRODRUGS OF CANNABINOIDS” (priority 2021, published 2025).
≈ marks a conversion by molar mass, not a printed value.

Columns and labels:
[1] = Liver microsome stability assay (MLM); type: in vitro ADME; settings: mouse, mouse liver microsomes, pH 7.4; 3 μM test compound, NADPH; read-out: T 1/2 in MLM
Protocol: (§1) General Experimental: Human and mouse liver microsomes were purchased from Xenotech at 20 mg/mL. NADPH (Sigma-Aldrich) 10 mM stocks were prepared in deionized water.
Procedure for Liver Microsome Stability Assay: Test compounds and positive controls were dissolved in 100% DMSO to make 10 mM stock solutions. Verapamil (Sigma-Aldrich) and diphenhydramine (Sigma-Aldrich) were used as positive controls for both human liver microsomes (HLM) and mouse liver microsomes (MLM). The 10 mM stock solutions of test and control compounds were further diluted in potassium phosphate buffer (100 mM, pH 7.4) to 500 μM to ensure that the organic solvent content was <0.2%. The liver microsome (HLM or MLM) assay was prepared in a 1.5 mL Eppendorf tube with a final volume of 1100 μL for duplicate runs. Each reaction contained phosphate buffer (928.4 μL), liver microsomes (55 μL), and test compound (6.6 μL of 500 μM), resulting in a final concentration of 3 μM for the test compound. The reaction was initiated with 110 μL of 10 mM NADPH. Aliquots (100 μL) were removed in duplicate at 0, 5, 10, 15, and 30 min and quenched in […] of 100% cold methanol which contained internal standard (ISTD: d5-7-ethoxy coumarin 2 μM). The aliquots were centrifuged at 12,000 g for 5 min, and the supernatant was transferred and placed in an LC-MS vial. Each time point was assessed by LC-MS/MS, and the area under the m/z curve (AUC), based on the MRM transition, was integrated w.r.t the ISTD. Positive controls were conducted at a final volume of 550 μL to enable a single run for each time point. Negative controls in the absence of NADPH were performed with the test and control compounds, respectively, at a final volume of 150 μL and measured at the most prolonged time point. Control compounds were processed and analyzed like test compounds. […] Half-life (T1/2) was calculated using the data obtained from LC-MS/MS and by plotting ln (% remaining of the parent prodrug) versus time and performing linear regression to determine slope. […]

[2] = Plasma stability assay (human plasma); type: in vitro ADME; settings: 37° C., read-out: T½ in human plasma (converted)
Protocol: General Experimental: Procaine and Procainamide were purchased from Sigma-Aldrich. Human plasma was obtained from BioIVT (Cat. No. […]2N) and 1X Dulbecco's PBS (pH 7.4, Gibco) was obtained from Thermos Fischer. Stock solutions were prepared in 100% DMSO, and suitable dilutions of target analytes were prepared in methanol for method development.
Procedure for Plasma Stability Assay: Test compounds were dissolved in DMSO to make a stock solution of 10 mM and then diluted to 500 μM in buffer (or 70% MeOH). Human plasma was thawed at ambient temperature and is aliquoted ([…]) to a 1.5 mL Eppendorf tube in duplicates (A and B) for each compound. Plasma was incubated at 37° C. for 10 minutes in an incubator shaker at 150 rpm; the reaction was initiated by the addition of the test compound (6.0 μL) and vortex mixing. The total reaction volume was 1000 μL where the final organic solvent concentrations were 0.6% MeOH and 0.03% DMSO. The spiked plasma samples were incubated at 37° C. for 4 hrs. The reactions were terminated at time points 0, 15, 30, 60, 120, 180, and 240 min by taking a 100 μL aliquot from the test incubation mixture and immediately quenching it in ice-cold acetonitrile containing internal standard (150 μL with 2 μM ISTD), followed by a quick vortex mixing. In addition, matrix blank was prepared by adding acetonitrile solutions containing ISTD to plasma samples without any of the analytes or control compounds. Also, an additional tube was made to measure compound degradation in PBS buffer. The samples were centrifuged at 15000 rpm for 25 min at 4° C. The supernatant was transferred to an LC-MS vial for analysis by LC/MS-MS. Each time point was run in duplicates followed by in-between blank washes to avoid the carryover and to equilibrate the column. Half-life (T1/2) was calculated using the data obtained from LC-MS/MS and by plotting ln (% remaining of the parent prodrug) versus time and performing linear regression to determine slope. Slope=−k and T1/2=0.693/k for first-order kinetics.
These positive controls were run in parallel to test the systems for competency.

[3] = Plasma stability (mouse plasma); type: in vitro ADME; settings: read-out: T½ in mouse plasma (converted)
[4] = Liver microsome stability assay (HLM); type: in vitro ADME; settings: human, microsomes, pH 7.4; 3 μM test compound, NADPH; read-out: T½ in HLM
Protocol: as §1
Procedure for Liver Microsome Stability Assay: Test compounds and positive controls were dissolved in 100% DMSO to make 10 mM stock solutions. Verapamil (Sigma-Aldrich) and diphenhydramine (Sigma-Aldrich) were used as positive controls for both human liver microsomes (HLM) and mouse liver microsomes (MLM). The 10 mM stock solutions of test and control compounds were further diluted in potassium phosphate buffer (100 mM, pH 7.4) to 500 μM to ensure that the organic solvent content was <0.2%. The liver microsome (HLM or MLM) assay was prepared in a 1.5 mL Eppendorf tube with a final volume of 1100 μL for duplicate runs. Each reaction contained phosphate buffer (928.4 μL), liver microsomes (55 μL), and test compound (6.6 μL of 500 μM), resulting in a final concentration of 3 μM for the test compound. The reaction was initiated with 110 μL of 10 mM NADPH. Aliquots (100 μL) were removed in duplicate at 0, 5, 10, 15, and 30 min and quenched in […] of 100% cold methanol which contained internal standard (ISTD: d5-7-ethoxy coumarin 2 μM). The aliquots were centrifuged at 12,000 g for 5 min, and the supernatant was transferred and placed in an LC-MS vial. Each time point was assessed by LC-MS/MS, and the area under the m/z curve (AUC), based on the MRM transition, was integrated w.r.t the ISTD. Positive controls were conducted at a final volume of 550 μL to enable a single run for each time point. Negative controls in the absence of NADPH were performed with the test and control compounds, respectively, at a final volume of 150 μL and measured at the most prolonged time point. Control compounds were processed and analyzed like test compounds. Each time point was run in triplicates on LC-MS/MS followed by in-between blank washes to avoid the carryover and to equilibrate the column. Half-life (T1/2) was calculated using the data obtained from LC-MS/MS and by plotting ln (% remaining of the parent prodrug) versus time and performing linear regression to determine slope. Slope=−k and T1/2=0.693/k for first-order kinetics.

[5] = Simulated Gastric Fluid stability assay; type: in vitro ADME; settings: simulated gastric fluid (SGF) with pepsin, pH 1.2; SGF pH about 1.2 with pepsin, 37° C.; read-out: T½ in SGF (converted)
Protocol: General Experimental: Simulated Gastric Fluid (SGF) is a pH 1.2 HCl solution with purified pepsin (800-2500 units of activity) (Test Solutions, The United States Pharmacopoeia (USP), 2008). SGF was prepared according to a procedure described in Test Solution—USP and other published articles (Bioorganic Chemistry, 49 (2013), 40-48). Sodium chloride 0.20 g and purified pepsin 0.32 g (Sigma), derived from porcine stomach mucosa with an activity of 800 to 2500 units per mg of protein, were dissolved in 0.70 mL hydrochloric acid and sufficient water to make 100 mL. […] The SGF solution prepared was used for in vitro studies to evaluate the prodrug stability.
At specified time intervals, aliquots (100 μL) were withdrawn and added to pre-cooled 100% acetonitrile (200 μL spiked with ISTD) and mixed well by vortex mixing for 2 min. The mixture was centrifuged at 13000 rpm for 15 min at 4° C.

physchem = type: physicochemical; settings: aqueous buffer, kinetic from dmso stock; nephelometry, PBS pH 7.0-7.3, 1% DMSO, 25° C., 90 min
Protocol: General Experimental: Nephelometry experiments were performed using untreated Corning® Costar® 96-well black polystyrene plates with clear flat bottoms. Sample stock solutions and serial dilutions were prepared with DriSolv® DMSO purchased from MilliporeSigma. All 100-fold dilutions and replicate experiments were prepared using Gibco® Dulbecco's phosphate-buffered saline (DPBS, no calcium, no magnesium) with a pH range of 7.0-7.3 as aqueous media. […] Nephelometry data was obtained using a NEPHELOstar® microplate reader and processed with MARS data analysis software from BMG LabTech.
Procedure for Nephelometry Experiments: Tested compounds were dissolved in 100% DMSO to make stock solutions of specified concentrations, ranging from 10 mM minimum up to 50 mM maximum. The sample then underwent serial dilution in a 96-well plate (Corning® Costar®). Well A1 of the plate contained 100% DMSO. […] Using a 12 channel multichannel pipette, 2.5 μL of sample from row A was transferred to each well in row B through row H of the plate. Next, 30 μL of PBS (pH=7.0-7.3) was added to row B through row H, providing each well with 32.5 μL. The plate was then incubated for 30 sec with shaking. Finally, 217.5 μL of PBS buffer was added to row B through row H, and the entire plate was incubated with shaking at 25° C. for 90 min. Note: The final volume of DMSO in actual experiments with PBS buffer was 1% throughout the plate. After 90 min, the 96-well plate was analyzed with a NEPHELOstar® instrument and the data was processed with MARS data analysis software.

[6] = daily oral doses of 10 mg/kg chronically administered; cited from earlier work

SMILES	half-life at 3 μM [1] [min]	half-life ([2]; unit min) [min]	half-life ([3]; unit min) [min]	half-life [4] [min]	half-life at 2 mM [5] [min]	solubility (physchem) [µM]	half-life [3] [min]	mean plasma concentration [6] [ng/mL]	half-life [2] [min]
C=C(C)[C@@H]1CCC(C)=C[C@H]1c1c(O)cc(CCCCC)cc1OC(=O)COP(=O)(O)O.N.N [7a, 2-(((1′R,2′R)-6-hydroxy-5′-methyl-4-pentyl-2′-(prop-1-en-2-yl)-1′,2′,3′,4′-tetrahydro-[1,1′-biphenyl]-2-yl)oxy)-2-oxoethyl phosphate di-ammonium salt]	6.1	20	4.5	59	315	> 500			
C=C(C)[C@@H]1CCC(C)=C[C@H]1c1c(O)cc(CCCCC)cc1O [CBD, Cannabidiol, reference compound]	2.9			5.8	> 180	16.9 ± 0.55 (≈ 5.32 µg/mL)	576	5.9 to 11.2	
C=C(C)[C@@H]1CCC(C)=C[C@H]1c1c(O)cc(CCCCC)cc1OC(=O)C1(OP(=O)(O)OCCCCC)CC1.N [14b, 1-((((1′R,2′R)-6-hydroxy-5′-methyl-4-pentyl-2′-(prop-1-en-2-yl)-1′,2′,3′,4′-tetrahydro-[1,1′-biphenyl]-2-yl)oxy)carbonyl)cyclopropyl pentyl phosphate ammonium salt]				24		276 ± 4.52			576
C=C(C)[C@@H]1CCC(C)=C[C@H]1c1c(O)cc(CCCCC)cc1OC(=O)C1(OP(=O)(O)OCCCCCC)CC1.N [14d, hexyl (1-((((1′R,2′R)-6-hydroxy-5′-methyl-4-pentyl-2′-(prop-1-en-2-yl)-1′,2′,3′,4′-tetrahydro-[1,1′-biphenyl]-2-yl)oxy)carbonyl)cyclopropyl) phosphate ammonium salt]				32		98 ± 1.24			> 240
C=C(C)[C@@H]1CCC(C)=C[C@H]1c1c(O)cc(CCCCC)cc1OC(=O)OCCCCOP(=O)(O)O.N.N [29c, (1′R,2′R)-6-hydroxy-5′-methyl-4-pentyl-2′-(prop-1-en-2-yl)-1′,2′,3′,4′-tetrahydro-[1,1′-biphenyl]-2-yl(4-(phosphonooxy)butyl) carbonate di-ammonium salt]				25		> 500			> 240
C=C(C)[C@@H]1CCC(C)=C[C@H]1c1c(O)cc(CCCCC)cc1OC(=O)C1(OP(=O)(O)OC(C)C)CC1.N [14a, 1-((((1′R,2′R)-6-hydroxy-5′-methyl-4-pentyl-2′-(prop-1-en-2-yl)-1′,2′,3′,4′-tetrahydro-[1,1′-biphenyl]-2-yl)oxy)carbonyl)cyclopropyl isopropyl phosphate ammonium salt]				13		> 500			> 180
C=C(C)[C@@H]1CCC(C)=C[C@H]1c1c(O)cc(CCCCC)cc1OC(=O)C1(OP(=O)(O)OCCCCCCC)CC1.N [14e, heptyl (1-((((1′R,2′R)-6-hydroxy-5′-methyl-4-pentyl-2′-(prop-1-en-2-yl)-1′,2′,3′,4′-tetrahydro-[1,1′-biphenyl]-2-yl)oxy)carbonyl)cyclopropyl) phosphate ammonium salt]				45		57 ± 1.24			> 240
C=C(C)[C@@H]1CCC(C)=C[C@H]1c1c(O)cc(CCCCC)cc1OC(=O)C1(OP(=O)(O)OCCOC)CC1.N [14i, 1-((((1′R,2′R)-6-hydroxy-5′-methyl-4-pentyl-2′-(prop-1-en-2-yl)-1′,2′,3′,4′-tetrahydro-[1,1′-biphenyl]-2-yl)oxy)carbonyl)cyclopropyl (2-methoxyethyl) phosphate ammonium salt]				19		> 500			> 240
C=C(C)[C@@H]1CCC(C)=C[C@H]1c1c(O)cc(CCCCC)cc1OC(=O)C1CC(OP(=O)(O)O)C1.N.N (stereo partly drawn) [7c, 3-((((1′R,2′R)-6-hydroxy-5′-methyl-4-pentyl-2′-(prop-1-en-2-yl)-1′,2′,3′,4′-tetrahydro-[1,1′-biphenyl]-2-yl)oxy)carbonyl)cyclobutyl phosphate di-ammonium salt]				53		> 500			432
C=C(C)[C@@H]1CCC(C)=C[C@H]1c1c(O)cc(CCCCC)cc1OC(=O)C1(OP(=O)(O)OCCCCCCCCC)CC1.N [14f, 1-((((1′R,2′R)-6-hydroxy-5′-methyl-4-pentyl-2′-(prop-1-en-2-yl)-1′,2′,3′,4′-tetrahydro-[1,1′-biphenyl]-2-yl)oxy)carbonyl)cyclopropyl nonyl phosphate ammonium salt]				> 30		67 ± 5.98			> 240
